{
  "source": "patent US20260337156A1",
  "about": "“SOLUBILIZING COMPOUNDS” (Vivesto AB, priority 2022, published 2026)",
  "assay_type_in_all_cases": "physicochemical",
  "key": {"[1]": {"assay": "micellar particle size and polydispersity index (ZetaSizer, dynamic light scattering) of drug formulations at different dilutions", "details": "micelles with docetaxel", "description": "The particle size of the micelles in the composition is typically in the range of about 5 to about 150 nm. The particle size may be determined e.g. using Dynamic Light Scattering (DLS) in 0.9% NaCl at 1 mg/mL drug concentration, preferably using a red laser with a wavelength of 633 nm.\nMicellar size was measured using a ZetaSizer from Malvern Panalytical. […]\n20 mg of example 1 was dispensed into a 25 mL round bottom flask and dissolved in methanol (3 mL). 800 μL of a stock solution of docetaxel in methanol (5 mg/mL) was added. The solution was evaporated to dryness in a rotary evaporator. Final drying was performed in a desiccator to remove residual solvent. Hydration of the dried film was performed by adding water for injection (1.0 mL) to a concentration of 4 mg/mL of docetaxel. The 4 mg/mL concentration was further diluted with 0.9% sodium chloride according to the table below. […]\n(§1) A serial dilution was performed for the system docetaxel:compound 1. A stock solution of docetaxel in methanol was mixed with a stock solution of the micelle forming agent (compound 1) in a round bottom flask at a weight ratio of 1:5. The mixture was evaporated to dryness in a rotary evaporator. Final drying was performed in a desiccator to remove residual solvent. Hydration of the dried film was performed by adding water for injection (1.0 mL) to a concentration of 1 mg/mL of docetaxel. The resulting solution was filtered through a 0.22 μm sterile filter and further diluted with 0.9% sodium chloride solution.\n(§2) 4.5 mg of compound 1 was dispensed into a 25 mL round bottom flask and dissolved in methanol (2 mL). 1500 μL of a stock solution of cabazitaxel in methanol (1.00 mg/mL) was added. The solution was evaporated to dryness in a rotary evaporator. Final drying was performed in a desiccator to remove residual solvent. […]"}, "[2]": {"assay": "drug loading capacity (ratio of amount API:(API+excipient))", "details": "docetaxel 1.25 mg + compound 4.0 mg", "description": "(§3) The solution was evaporated to dryness in a rotary evaporator. Final drying was performed in a desiccator to remove residual solvent. Hydration of the dried film was performed by adding water for injection (1.2 mL). […] Drug loading capacity is defined as the ratio of amount API:(API+excipient).\n20 mg of example 1 was dispensed into a 25 mL round bottom flask and dissolved in methanol (3 mL). 800 μL of a stock solution of docetaxel in methanol (5 mg/mL) was added. The solution was evaporated to dryness in a rotary evaporator. Final drying was performed in a desiccator to remove residual solvent. Hydration of the dried film was performed by adding water for injection (1.0 mL) to a concentration of 4 mg/mL of docetaxel. The 4 mg/mL concentration was further diluted with 0.9% sodium chloride according to the table below.\n(§4) 11 mg of example 1 was dispensed into a 25 mL round bottom flask and dissolved in methanol (2 mL). 740 μL of a stock solution of docetaxel in methanol (4.96 mg/mL) was added. The solution was evaporated to dryness in a rotary evaporator. Final drying was performed in a desiccator to remove residual solvent.\n(§5) 4.5 mg of compound 1 was dispensed into a 25 mL round bottom flask and dissolved in methanol (2 mL). 1500 μL of a stock solution of cabazitaxel in methanol (1.00 mg/mL) was added. The solution was evaporated to dryness in a rotary evaporator. Final drying was performed in a desiccator to remove residual solvent.\nas §5, with “cyclosporin” for “cabazitaxel”\n4.0 mg of compound 2 was dispensed into a 25 mL round bottom flask and dissolved in methanol (3 mL). 250 μL of a stock solution of docetaxel in methanol (5 mg/mL) was added. The solution was evaporated to dryness in a rotary evaporator. Final drying was performed in a desiccator to remove residual solvent. Hydration of the dried film was performed by adding water for injection (1.25 mL). […]\nas §4, with “4.5” for “11”, “compound 3” for “example 1”, “(3” for “(2”, “305” for “740”\nas §4, with “4.5” for “11”, “compound 3” for “example 1”, “(3” for “(2”, “[…]” for “740”"}, "[3]": {"assay": "appearance of the hydrated drug formulation", "details": "formulation with docetaxel", "description": "3.8 mg of compound 1 was dispensed into a 25 mL round bottom flask and dissolved in methanol (2 mL). 240 μL of a stock solution of docetaxel in methanol (5 mg/mL) was added.\nas §3, §4, §5\nas §2, with “cyclosporin” for “cabazitaxel”\n4.5 mg of compound 4 was dispensed into a round bottom flask and dissolved in methanol (3 mL). […] of a stock solution of docetaxel in methanol (4.96 mg/mL) was added. The solution was evaporated to dryness in a rotary evaporator. Final drying was performed in a desiccator (40 min) to remove residual solvent. Rehydration of the dried film was performed by adding 0.9% sodium chloride solution (1.5 mL)."}, "[4]": {"assay": "particle size and polydispersity index of drug micelles over time (ZetaSizer)", "details": "docetaxel:compound 1:5, docetaxel 0.5 mg/mL", "description": "Micellar size was measured using a ZetaSizer from Malvern Panalytical.\nas §1, with “A” for “A serial dilution was performed for the system docetaxel:compound 1. A”, “compound 1” for “the micelle forming agent (compound 1)”, “flask.” for “flask at a weight ratio of 1:5.”, “solution to 0.5 mg/mL of docetaxel. […]” for “solution.”\n(§6) A stock solution of cyclosporin in methanol was mixed with a stock solution of compound 1 in a round bottom flask. The mixture was evaporated to dryness in a rotary evaporator. Final drying was performed in a desiccator to remove residual solvent. Hydration of the dried film was performed by adding water for injection (1.0 mL) to a concentration of 1 mg/mL of cyclosporin. The resulting solution was filtered through a 0.22 μm sterile filter and further diluted with 0.9% sodium chloride solution to 0.5 mg/mL of cyclosporin. The final weight ratio of cyclosporin to micelle forming agent was 1:3.\n(§7) A stock solution of docetaxel in methanol was mixed with a stock solution of compound 3 in a round bottom flask. The mixture was evaporated to dryness in a rotary evaporator. Final drying was performed in a desiccator to remove residual solvent. Hydration of the dried film was performed by adding water for injection (1.0 mL) to a concentration of 1 mg/mL of docetaxel. The resulting solution was filtered through a 0.22 μm sterile filter and further diluted with 0.9% sodium chloride solution to 0.5 mg/mL of Docetaxel. The final weight ratio of docetaxel to micelle forming agent was 1:3.\nas §6, with “compound 3” for “compound 1”\nas §7, with “4” for “3”, “docetaxel. […]” for “Docetaxel. The final weight ratio of docetaxel to micelle forming agent was 1:3.”\nas §7, with “compound 5” for “compound 3”, “of docetaxel.” for “of Docetaxel.”\nA stock solution of cabazitaxel in methanol was mixed with a stock solution of compound 5 in a round bottom flask. The mixture was evaporated to dryness in a rotary evaporator. Final drying was performed in a desiccator to remove residual solvent. Hydration of the dried film was performed by adding water for injection (1.0 mL) to a concentration of 1 mg/mL of cabazitaxel. […]"}, "[5]": {"details": "1.25 mg docetaxel + 4.0 mg compound, water 1.25 mL, mixed 1:1 v/v with 0.9% NaCl"}, "[6]": {"details": "ratio 3:1, 0.9% NaCl, docetaxel conc. 0.25 mg/mL"}, "[7]": {"details": "ratio 3:1, 0.9% NaCl, docetaxel conc. 0.5 mg/mL"}, "[8]": {"details": "ratio 3:1, 0.9% NaCl, docetaxel conc. 1 mg/mL"}},
  "data": [
    {"smiles": "COc1cc(C)c(/C=C/C(C)=C/C=C/C(C)=C/C(=O)N(CCCS(=O)(=O)[O-])C2CCCCC2)c(C)c1C.[Na+]", "note": "[Compound 2]", "values": [
      {"measurement": "Particle size", "setting": "[1]; [5]", "result": 17.9, "unit": "nm"},
      {"measurement": "Polydispersity index", "setting": "[1]; [5]", "result": 0.72},
      {"measurement": "Drug loading capacity", "setting": "[2]", "result": 24, "unit": "%"},
      {"measurement": "appearance of formulation", "setting": "[3]", "result": "yellow transparent solution"}
    ]},
    {"smiles": "COc1cc(C)c(/C=C/C(C)=C/C=C/C(C)=C/C(=O)N(CC(O)CS(=O)(=O)[O-])C2CCCCC2)c(C)c1C.[Na+]", "note": "(stereo not drawn) [Compound 4]", "values": [
      {"measurement": "Particle size", "setting": "[1]; [6]", "result": 8.7, "unit": "nm"},
      {"measurement": "Polydispersity index", "setting": "[1]; [6]", "result": 0.31},
      {"measurement": "Particle size", "setting": "[1]; [7]", "result": 8.9, "unit": "nm"},
      {"measurement": "Polydispersity index", "setting": "[1]; [7]", "result": 0.25},
      {"measurement": "Particle size", "setting": "[1]; [8]", "result": 8.9, "unit": "nm"},
      {"measurement": "Polydispersity index", "setting": "[1]; [8]", "result": 0.32},
      {"measurement": "change of particle size and polydispersity index over time", "setting": "[4]; 0-24 h", "result": "Increase in the particle size and variations of the polydispersity index over time were noted"},
      {"measurement": "Particle size", "setting": "[4]; time 0 h", "result": 34.56, "unit": "nm"},
      {"measurement": "Polydispersity index", "setting": "[4]; time 0 h", "result": 0.26},
      {"measurement": "Particle size", "setting": "[4]; time 1 h", "result": 54.37, "unit": "nm"},
      {"measurement": "Polydispersity index", "setting": "[4]; time 1 h", "result": 0.14},
      {"measurement": "Particle size", "setting": "[4]; time 2 h", "result": 56.46, "unit": "nm"},
      {"measurement": "Polydispersity index", "setting": "[4]; time 2 h", "result": 0.12},
      {"measurement": "Particle size", "setting": "[4]; time 4 h", "result": 58.90, "unit": "nm"},
      {"measurement": "Polydispersity index", "setting": "[4]; time 4 h", "result": 0.11},
      {"measurement": "Particle size", "setting": "[4]; time 6 h", "result": 59.79, "unit": "nm"},
      {"measurement": "Polydispersity index", "setting": "[4]; time 6 h", "result": 0.12},
      {"measurement": "Particle size", "setting": "[4]; time 24 h", "result": 78.72, "unit": "nm"},
      {"measurement": "Polydispersity index", "setting": "[4]; time 24 h", "result": 0.08},
      {"measurement": "appearance of formulation", "setting": "[3]", "result": "yellow transparent solution"}
    ]}
  ]
}
